Assay results taken from US20070123488A1, “Pharmaceutical composition comprising a zinc-hyaluronate complex for the treatment of multiple sclerosis” (RICHTER GEDEON VEGYESZETI GYAR RT., priority 2003, published 2007).
“Also recorded” adds a separate entry of the source.

Key:
[1] = system: experimental autoimmune encephalomyelitis (EAE) provoked by myelin oligodendrocyte glycoprotein (MOG); assay: CR EAE provoked by MOG in mice, s.c. treatment; type: in vivo; settings: for ASC (treatment from day 5 to day 22): HMW Zn-HA 10 mg/kg, ZnCl2 equivalent to 0.8 mg/kg Zn2+; for Effect on the EAE model (in words): mice
From the text: The only adequate and widely used model available for purposes of preclinical investigations of multiple sclerosis is the experimental autoimmune encephalomyelitis (EAE) (Mokhatarian et al., Nature 309, 356-358. (1984); Raine et al., Lab. Invest. 31, 369-380. (1974)), an inflammatory disease of the central nervous system transmitted by CD4^+ T-lymphocytes. Although the clinical complexity of the model is moderate compared with the disease investigated, its use is unavoidable in a research aimed at MS. Preclinical tests of Copolymer-1 (Copaxone) and interferon beta-1 already approved for human treatment, as well as those of the new drugs under development were/are carried out using this model (Popovic et al., Ann. Neurol. 51, 215-223. (2001); Stanislaus et al., Neurosci. Lett. 333, 167-170. (2002)). […] That's why in our experiments CR EAE provoked by myelin oligodendrocyte glycoprotein (MOG) in mice has been studied (Amor et al., J. Immunol. 153, 4349-4356. (1994)). In the middle of the 1960s the effect of hyaluronan sodium salt was investigated by Romanian research workers on EAE model.
Next, the possible effect of the HMW Zn-HA (10 mg/kg in 200 μl of physiological saline, subcutane) on the time of appearance of clinical symptoms has been investigated.
Tests were carried out on groups of mice (n=6-10 mice/group) using two types of treatment: (i) prophylactic, wherein administration happens from day 5 to day 22 after inoculation of MOG, or in a single case from day 9-10 to day 28 after that (marked with # in tables 2 and 3); and (ii) therapeutic treatment, wherein administration of the Zn-HA happened from day 13 to day 28 after the EAE had been induced (marked with * in tables 2 and 3).
The mice were given 10 mg/kg HMW Zn-HA s. c. daily and clinical data thereof were obtained from day 10 to day 28 and day 5 to day 22, respectively, after the EAE had been induced. The results were calculated from the average daily clinical data to give the average summed up clinical data (ASC).
In the studies summarized in Tables 1 to 4 each mouse used as EAE model received 200 μl s. c. injection each; the injection contained the active ingredient or the carrier (0.9% sodium chloride aqueous solution). To obtain the doses given in terms of mg/kg bodyweight above solutions of different concentration were prepared as follows: […]

[2] = target: matrix metalloproteinases, particularly the MMP-9 (Homo sapiens, UniProt P14780); settings: cited from earlier work
EAE = settings: rabbits, intramuscularly; cited from earlier work
[3] = compared with the sodium-HA salt; cited from earlier work

Sequence of matrix metalloproteinases, particularly the MMP-9 (P14780 94-707): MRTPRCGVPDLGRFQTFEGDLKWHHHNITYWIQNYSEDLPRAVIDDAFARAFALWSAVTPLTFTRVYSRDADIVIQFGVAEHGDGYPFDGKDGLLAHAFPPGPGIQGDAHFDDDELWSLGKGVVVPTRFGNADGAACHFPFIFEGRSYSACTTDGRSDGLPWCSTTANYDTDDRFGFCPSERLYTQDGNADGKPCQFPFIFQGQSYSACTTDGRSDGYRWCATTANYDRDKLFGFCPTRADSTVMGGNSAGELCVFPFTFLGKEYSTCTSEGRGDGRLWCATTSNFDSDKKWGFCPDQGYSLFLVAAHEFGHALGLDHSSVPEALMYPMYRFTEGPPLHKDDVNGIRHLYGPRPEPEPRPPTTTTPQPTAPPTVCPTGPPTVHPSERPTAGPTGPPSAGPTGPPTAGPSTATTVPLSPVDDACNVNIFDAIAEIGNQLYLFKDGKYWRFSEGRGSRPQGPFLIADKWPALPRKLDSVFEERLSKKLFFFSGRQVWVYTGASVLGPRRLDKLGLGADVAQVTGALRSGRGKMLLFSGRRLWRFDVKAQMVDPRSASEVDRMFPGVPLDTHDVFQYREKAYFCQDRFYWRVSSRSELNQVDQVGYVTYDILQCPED

| Molecule | ASC (treatment from day 5 to day 22) [1] | Effect on the EAE model (in words) [1] | Effect on the EAE model (in words) ([1]; listed as Zn^2+) | Inhibitory effect on tissue damaging enzymes (matrix metalloproteinases, particularly the MMP-9) [2] | Effect on development of EAE (in words) (EAE) | Effect on the EAE model (in words) ([1]; listed as Na-HA) | Effect on the EAE model (in words) ([1]; listed as Na-HA salt) | Effect on the EAE model (in words) ([1]; listed as Na-hyaluronan) | Antioxidant activity [3] |
| --- | --- | --- | --- | --- | --- | --- | --- | --- | --- |
| [Cl-].[Cl-].[Zn+2] [ZnCl2, zinc chloride] | 14.2 ± 3.3 | did not show significant effect | ineffective | – | – | – | – | – | – |
| Na-hyaluronan [HMW Na-HA] | 14.2 ± 1.9 | – | – | does not show the latter effect | did not inhibit, but in certain cases did assist the development of EAE | ineffective | ineffective; also recorded: did not show significant effect | didn't exert any influence | – |
| zinc-hyaluronan complex [zinc-HA] | – | – | – | inhibitory effect | – | – | – | – | increased antioxidant activity |
